Drawing on patent US8592395B2, “Therapeutic compounds” (GlaxoSmithKline LLC, priority 2009, dated 2013), this text covers IC50 for 23 compounds.

pIC50: −log10 of the molar value.

The test deals with HIV. Put plainly: HOS assay (HOS-Luc HIV-1 LTR-luciferase reporter antiviral assay). In kind it is cell-based. Conditions: Human immunodeficiency virus 1, 96 h; HOS-Luc cells (HOS-CD4.CCR5 with HIV-1 LTR-luciferase reporter), four-day incubation with virus, luciferase readout. On the procedure:
HOS-Luc cells were created by introducing an HIV-1 LTR-luciferase reporter into HOS-CD4.CCR5 (NIH AIDS Research and Reference Reagents Program, cat. #3318). The cells were propagated in DMEM complete medium. Cells were split 1:20 by standard trypsinization when confluency reached 80% (roughly every 2 to 3 days).
Black-walled 96-well tissue culture plates were seeded with HOS-Luc at 6×10^3 cells per well in 50 μL DMEM containing 2% FBS and placed in a humidified incubator at 37° C., 5% CO2 overnight. The following day, test compounds were serially diluted in 4-fold increments at 2× the final concentration in DMEM+2% FBS+0.2% DMSO. Diluted compound (50 μL) was transferred to the HOS-Luc cells and the plates were placed in a humidified incubator at 37° C., 5% CO2 for 1 hr. An additional 60 μL of 2× compound was transferred to a clear-walled 96-well tissue culture plate and 60 μL of virus (diluted 1:50 in tissue culture media) was added to each well and thoroughly mixed. The virus input was previously determined by titrating the virus under assay conditions without compound and selecting a dilution that gives a response in the linear range of the curve and a signal to background of at least 30. The HIV/compound mixture (100 μL) was transferred to the black-walled plates containing 100 μL of cells/compound. The plates were placed in a humidified incubator at 37° C., 5% CO2 for four days. Following the four-day incubation, 150 μL of supernatant was removed and 50 μL of reconstituted Luclite (Promega) was added to each well. For cytotoxicity assessment, 50 μL of reconstituted CellTiter-GLo (Promega) was added to each well. Each plate was topsealed and read in a Topcount (Packard) luminometer at 1 s/well.
Raw data from the HOS-Luc assay were expressed as Relative Light Units (RLU) and normalized according to the following formula: (RLU at drug [ ]/RLU no drug)*100=% control
The potency of test compounds are reported as IC50 values derived from the four parameter Hill equation, defined as: y=Vmax*(1−(x^n/(K^n+x^n)))+Y2 Where:
y=normalized response data
Vmax=upper bound of response
Y2=lower bound or baseline of response
Background: In a reporter assay the amount or activity of a reporter protein is the signal.
Consider `Cc1nc2ccccc2n1[C@H]1C[C@H]2CC[C@@H](C1)N2CCC(CNS(=O)(=O)c1ccc(C#N)cc1)c1ccccc1` (stereo partly drawn) [Example 4, 4-cyano-N-{4-[(1R,5S)-3-(2-methyl-1H-benzimidazol-1-yl)-8-azabicyclo[3.2.1]oct-8-yl]-2-phenylbutyl}benzenesulfonamide], for which the negative-log IC50 (pIC50) (commonly the IC50 on a negative log10 scale, so that one unit is a factor of ten) was 7.00 to 8.00. The same measure for `Cc1nc2ccccc2n1C1C[C@H]2CC[C@@H](C1)N2CCC(CNS(=O)(=O)c1ccc(C(N)=O)cc1)c1ccccc1` (stereo partly drawn) [Example 8, 4-[({4-[(1R,5S)-3-(2-methyl-1H-benzimidazol-1-yl)-8-azabicyclo[3.2.1]oct-8-yl]-2-phenylbutyl}amino)sulfonyl]benzamide]: 7.00 to 8.00; for `Cc1nc2ccncc2n1[C@H]1C[C@H]2CC[C@@H](C1)N2CCC(CNS(=O)(=O)c1ccccc1)c1ccccc1` (stereo partly drawn) [Example 11, N-{4-[(1R,5S)-3-(2-methyl-3H-imidazo[4,5-c]pyridin-3-yl)-8-azabicyclo[3.2.1]oct-8-yl]-2-phenylbutyl}benzenesulfonamide]: 7.00 to 8.00; for `Cc1nc2ccccc2n1[C@H]1C[C@H]2CC[C@@H](C1)N2CCC(CNS(=O)(=O)NC1CCC1)c1ccccc1` (stereo partly drawn) [Example 14, N-cyclobutyl-N′-{4-[(1R,5S)-3-(2-methyl-1H-benzimidazol-1-yl)-8-azabicyclo[3.2.1]oct-8-yl]-2-phenylbutyl}sulfamide]: 7.00 to 8.00. `Cc1nc2ccccc2n1[C@H]1C[C@H]2CC[C@@H](C1)N2CCC(CNS(=O)(=O)CC(F)(F)F)c1ccccc1` (stereo partly drawn) [Example 10, 2,2,2-trifluoro-N-{4-[(1R,5S)-3-(2-methyl-1H-benzimidazol-1-yl)-8-azabicyclo[3.2.1]oct-8-yl]-2-phenylbutyl}ethanesulfonamide] gave a pIC50 of 7.00 to 8.00. The result for `Cc1nc2ccccc2n1[C@H]1C[C@H]2CC[C@@H](C1)N2CCC(CNS(=O)(=O)c1ccc2[nH]c(=O)oc2c1)c1ccccc1` (some centres unmarked) [Example 7] reads 7.00 to 8.00. The same measure for `Cc1nc2ccccc2n1[C@H]1C[C@H]2CC[C@@H](C1)N2CCC(CNS(C)(=O)=O)c1ccccc1` (stereo partly drawn) [Example 5, N-{4-[(1R,5S)-3-(2-methyl-1H-benzimidazol-1-yl)-8-azabicyclo[3.2.1]oct-8-yl]-2-phenylbutyl}methanesulfonamide]: 7.00 to 8.00; for `CC(=O)N1CCc2nc(C)n([C@H]3C[C@H]4CC[C@@H](C3)N4CCC(CNS(=O)(=O)c3ccccc3)c3ccccc3)c2C1` (stereo partly drawn) [Example 13, N-{4-[(1R,5S)-3-(5-acetyl-2-methyl-4,5,6,7-tetrahydro-3H-imidazo[4,5-c]pyridin-3-yl)-8-azabicyclo[3.2.1]oct-8-yl]-2-phenylbutyl}benzenesulfonamide]: above 8.00; for `Cc1nnc(C(C)C)n1[C@H]1C[C@H]2CC[C@@H](C1)N2CCC(CNC(=O)C1CCC(F)(F)CC1)c1ccccc1` (stereo partly drawn) [Example 16, 4,4-difluoro-N-(4-{(1R,5S)-3-[3-methyl-5-(1-methylethyl)-4H-1,2,4-triazol-4-yl]-8-azabicyclo[3.2.1]oct-8-yl}-2-phenylbutyl)cyclohexanecarboxamide]: 6.00 to 7.00. The same measure for `Cc1nc2ccccc2n1[C@H]1C[C@H]2CC[C@@H](C1)N2CCC(C)(CN(C)C(=O)C1CCC(F)(F)CC1)c1ccccc1` (stereo partly drawn) [Example 22, 4,4-difluoro-N-methyl-N-{2-methyl-4-[(1R,5S)-3-(2-methyl-1H-benzimidazol-1-yl)-8-azabicyclo[3.2.1]oct-8-yl]-2-phenylbutyl}cyclohexanecarboxamide]: 6.00 to 7.00. On to `Cc1nc2ccccc2n1[C@H]1C[C@H]2CC[C@@H](C1)N2CCC(CNS(=O)(=O)NC1CCC(F)(F)CC1)c1ccccc1` (stereo partly drawn) [Example 15, N-(4,4-difluorocyclohexyl)-N′-{4-[(1R,5S)-3-(2-methyl-1H-benzimidazol-1-yl)-8-azabicyclo[3.2.1]oct-8-yl]-2-phenylbutyl}sulfamide], for which the negative logarithm of the IC50 (pIC50) was 7.00 to 8.00.

`Cc1nc2ccccc2n1[C@H]1C[C@H]2CC[C@@H](C1)N2CCC(C)(CNC(=O)C1CCC(F)(F)CC1)c1ccccc1` (stereo partly drawn) [Example 21, 4,4-difluoro-N-{2-methyl-4-[(1R,5S)-3-(2-methyl-1H-benzimidazol-1-yl)-8-azabicyclo[3.2.1]oct-8-yl]-2-phenylbutyl}cyclohexanecarboxamide] had a pIC50 of 6.00 to 7.00. The same measure for `Cc1nnc(C(C)C)n1[C@H]1C[C@H]2CC[C@@H](C1)N2CCC(CNS(=O)(=O)c1ccccc1)c1ccccc1` (stereo partly drawn) [Example 17, N-(4-{(1R,5S)-3-[3-methyl-5-(1-methylethyl)-4H-1,2,4-triazol-4-yl]-8-azabicyclo[3.2.1]oct-8-yl}-2-phenylbutyl)benzenesulfonamide]: 6.00 to 7.00; for `Cc1nnc(C(C)C)n1[C@H]1C[C@H]2CC[C@@H](C1)N2CCC(CNC(=O)C1CC(F)(F)C1)c1ccccc1` (stereo partly drawn) [Example 18, 3,3-difluoro-N-(4-{(1R,5S)-3-[3-methyl-5-(1-methylethyl)-4H-1,2,4-triazol-4-yl]-8-azabicyclo[3.2.1]oct-8-yl}-2-phenylbutyl)cyclobutanecarboxamide]: 6.00 to 7.00.

Consider `Cc1nc2ccccc2n1[C@H]1C[C@H]2CC[C@@H](C1)N2CCC(CNS(=O)(=O)c1ccccc1)c1ccccc1` (stereo partly drawn) [Example 1, N-{4-[(1R,5S)-3-(2-methyl-1H-benzimidazol-1-yl)-8-azabicyclo[3.2.1]oct-8-yl]-2-phenylbutyl}], for which the pIC50 was 7.00 to 8.00. Consider `Cc1nc2ccccc2n1[C@H]1C[C@H]2CC[C@@H](C1)N2CCC(CNS(=O)(=O)c1cccc(C#N)c1)c1ccccc1` (stereo partly drawn) [Example 3, 3-cyano-N-{4-[(1R,5S)-3-(2-methyl-1H-benzimidazol-1-yl)-8-azabicyclo[3.2.1]oct-8-yl]-2-phenylbutyl}benzenesulfonamide], for which the pIC50 was 7.00 to 8.00. The result for `Cc1nnc(C(C)C)n1[C@@H]1C[C@H]2CC[C@@H](C1)N2CCC(C)(CNC(=O)C1CCC(F)(F)CC1)c1ccccc1` (stereo partly drawn) [Example 23, 4,4-difluoro-N-(2-methyl-4-{(1R,5S)-3-[3-methyl-5-(1-methylethyl)-4H-1,2,4-triazol-4-yl]-8-azabicyclo[3.2.1]oct-8-yl}-2-phenylbutyl)cyclohexanecarboxamide] reads 6.00 to 7.00; that for `Cc1nc2ccccc2n1[C@H]1C[C@H]2CC[C@@H](C1)N2CCC(CNS(=O)(=O)c1cccc(C(N)=O)c1)c1ccccc1` (stereo partly drawn) [Example 6, 3-[({4-[(1R,5S)-3-(2-methyl-1H-benzimidazol-1-yl)-8-azabicyclo[3.2.1]oct-8-yl]-2-phenylbutyl}amino)sulfonyl]benzamide], 7.00 to 8.00. The same measure for `Cc1nc2ccccc2n1[C@H]1C[C@H]2CC[C@@H](C1)N2CCC(C)(CN(C)S(=O)(=O)c1ccccc1)c1ccccc1` (stereo partly drawn) [Example 20, N-methyl-N-{2-methyl-4-[(1R,5S)-3-(2-methyl-1H-benzimidazol-1-yl)-8-azabicyclo[3.2.1]oct-8-yl]-2-phenylbutyl}benzenesulfonamide]: above 8.00. The result for `Cc1nc2ccccc2n1[C@H]1C[C@H]2CC[C@@H](C1)N2CCC(C)(CNS(=O)(=O)c1ccccc1)c1ccccc1` (stereo partly drawn) [Example 19, N-{2-methyl-4-[(1R,5S)-3-(2-methyl-1H-benzimidazol-1-yl)-8-azabicyclo[3.2.1]oct-8-yl]-2-phenylbutyl}benzenesulfonamide] reads 6.00 to 7.00. With `COP(=O)(NCC(CCN1[C@@H]2CC[C@H]1C[C@@H](n1c(C)nc3ccccc31)C2)c1ccccc1)OC` (stereo partly drawn) [Example 9, dimethyl{4-[(1R,5S)-3-(2-methyl-1H-benzimidazol-1-yl)-8-azabicyclo[3.2.1]oct-8-yl]-2-phenylbutyl}amidophosphate], the negative-log IC50 (pIC50) was 7.00 to 8.00. The same measure for `Cc1nc2ccccc2n1[C@H]1C[C@H]2CC[C@@H](C1)N2CCC(CN(C)S(=O)(=O)c1ccccc1)c1ccccc1` (stereo partly drawn) [Example 2, N-methyl-N-{4-[(1R,5S)-3-(2-methyl-1H-benzimidazol-1-yl)-8-azabicyclo[3.2.1]oct-8-yl]-2-phenylbutyl}benzenesulfonamide]: above 8.00. The same measure for `Cc1nnc(C(C)C)n1[C@@H]1C[C@H]2CC[C@@H](C1)N2CCC(C)(CNS(=O)(=O)c1ccccc1)c1ccccc1` (stereo partly drawn) [Example 24, N-(2-methyl-4-{(1R,5S)-3-[3-methyl-5-(1-methylethyl)-4H-1,2,4-triazol-4-yl]-8-azabicyclo[3.2.1]oct-8-yl}-2-phenylbutyl)benzenesulfonamide]: 6.00 to 7.00.
